Test results from patent US20230302014A1, “USES OF GLUCOCORTICOID RECEPTOR (GR) ANTAGONIST AND ANDROGEN RECEPTOR (AR) DEGRADER COMBINATIONS” (ORIC Pharmaceuticals, Inc., priority 2020, published 2023).

How the values were obtained:
Format in all cases: cell-based, Human
AR protein = assay: Western blot of AR protein after dose-dependent AR degrader treatment; settings: LNCaP and CWR22PC cells, 3 days, increasing doses 3-1000 nM
Procedure: The cells were then trypsinized (Corning#25-053-CI) and harvested for transcript (RT-qPCR) and protein (western blot) analysis.
Cell pellets were washed with PBS and lysed in RIPA buffer (VWR#AAJ63306-AK) supplemented with proteasome inhibitor cocktails (VWR #AAJ65789-LQ). Resuspended cells were briefly sonicated for ~30 seconds using a probe sonicator and incubated on ice for 40 minutes, followed with centrifugation at 12,000 rpm for 15 minutes at 4° C. to collect the supernatant. Protein concentration was quantitated using Quick Start™ Bradford Protein Assay Kit (Bio-Rad #5000201).
Proteins were transferred to nitrocellulose membranes using iBlot 2 Dry Blotting System (ThermoFisher#IB210021) at 20 V for 10 minutes.

CWR22PC cells = assay: Cell growth (cell number) of prostate cancer cells under long-term treatment; settings: CWR22PC; CSS media; 21 days; 0.1 nM R1881 + 1 µM ARV-110, + 30 nM dexamethasone, + 0.5 µM compound 1
Procedure: (§1) CWR22PC cells were seeded at a density of 2 × 10^5 cells/well in 6-well plates (Corning# 3516) in 2 mL of RPMI-1640 media supplemented with 10% charcoal-stripped serum (CSS) in duplicate. 24 hours later, cells were treated with 100 pM R1881, 30 nM dexamethasone, 0.5 µM compound 1, 1 µM of ARD1 or ARD2, or combinations thereof as indicated. Fresh media containing the indicated treatment was replaced every 5-7 days. Cell supernatant was collected on Day 12 and 19 and stored at -80° C. for PSA AlphaLISA assay. Cell images were taken on Day 12 and 19 using Leica DMi8 microscope (LEICA MICROSYSTEMS, INC. IL) with a 10X magnification. Cells were then trypsinized and cell numbers in each treatment group were counted three times, average counts were plotted with GraphPad Prism 8. Cell pellets were washed once with 1XPBS and then lysed in 600 µL RLT RNA lysis buffer and stored at -80° C. RNA was extracted for end of study (EOS) biomarker analysis for which the detailed procedures are described in the section RNA Extraction and RT-qPCR analysis.
The impact of ARD1 and ARD2 on the growth of prostate cancer cells was explored. CWR22PC cells were plated in charcoal-stripped serum (CSS) media and treated with vehicle or 0.1 nM R1881 (synthetic AR ligand) without or with 1 µM of ARD1 or ARD2. Media with treatments were replaced every 5-7 days and cells were maintained at 37° C. for 22 days. Supernatant of each group was harvested at day 22 to measure PSA secretion by PSA AlphaLISA assays.
as §1, with “24 hours later, cells were treated with 100 pM R1881, 30 nM dexamethasone, 0.5 µM compound 1, 1 µM of ARD1 or ARD2, or combinations thereof as indicated.” left out, “15” for “12”, “21” for “19”, “assay.” for “assay. Cell images were taken on Day 12 and 19 using Leica DMi8 microscope (LEICA MICROSYSTEMS, INC. IL) with a 10X magnification.”

GR mRNA = assay: RT-qPCR of GR mRNA after time-dependent AR degrader treatment; settings: 30 nM dexamethasone, up to 15 days
Procedure: 5 million of LNCaP and CWR22PC cells per dish were plated in five 15-cm dishes in 20 mL of RPMI-1640 media supplemented with 10% charcoal-stripped serum (CSS) and cultured at 37° C. for 24 hours. Cells were treated with 30 nM of dexamethasone and with 100 nM of ARD1 or ARD2 and maintained at 37° C. until harvest. On Day 0, 6, 10, 13, and 15, cells were trypsinized, cell pellets were washed with 1XPBS and then divided for mRNA and protein preparation.
(§2) Adherent cells or cell pellets harvested for mRNA analysis were first washed once with PBS and then resuspended in 600 µL of RLT lysis buffer (Qiagen Inc.) supplemented with 1% of betamercaptoethanol. RNA was extracted by QIAcube using the RNeasy Mini QIAcube kit (Qiagen#74116) according to manufacturer’s instructions. The extracted RNA samples were then quantified using a Nanodrop 8000 Spectrophotometer. RT-qPCR reactions were set up in triplicate using 3 µL of 3 ng/ µL of RNA in 7 µL of pre-mixed SensiFAST™ SYBR No-ROX One-Step Kit reagents (BIOLINE# BIO-98005). The RT-qPCR reactions were run on a Bio-Rad CFX384 Real-Time PCR System and data was plotted with GraphPad Prism 8 software.
2 million of LNCaP and CWR22PC cells per dish were plated in five 10-cm dishes in 10 mL of RPMI-1640 media supplemented with 10% charcoal-stripped serum (CSS) and cultured at 37° C. for 24 hours. […]

[1] = system: GR target genes GILZ, PER1, KLF9, SGK1; assay: RT-qPCR of GR target genes after time-dependent AR degrader treatment; settings: LNCaP and CWR22PC cells; 100 nM degrader; 30 nM dexamethasone; 0, 6, 10, 13, 15 days
Procedure: as §2

[2] = system: AR and/or GR target genes KLK4, KLF9, FKBP5, PER1, SGK1; assay: Biomarker analysis by RT-qPCR, 48 hours; settings: CWR22PC and 22Rv1 cells, 0.1 nM R1881, 1 µM degrader
Procedure: CWR22PC and 22RV1 cells were seeded at a density of 2 × 10^5 cells/well in 6-well plates in 2 mL of RPMI-1640 media supplemented with 10% charcoal-stripped serum (CSS). Cells were treated with 100 pM R1881, 30 nM dexamethasone, 0.5 µM compound 1, 1 µM of ARD1 or ARD2, or combinations thereof as indicated and maintained at 37° C. 48 hours later, media was removed, and cells were washed once with PBS and then harvested for mRNA analysis.
as §2
CWR22PC and 22Rv1 cells were seeded at a density of 2 × 10^5 cells/well in 6-well plates in 2 mL of RPMI-1640 media supplemented with 10% charcoal-stripped serum (CSS). […] 48 hours later, media was removed, and cells were washed once with PBS and then harvested for mRNA analysis.

N#Cc1ccc(O[C@H]2CC[C@H](NC(=O)c3ccc(N4CCC(CN5CCN(c6cc7c(cc6F)C(=O)N(C6CCC(=O)NC6=O)C7=O)CC5)CC4)nn3)CC2)cc1Cl (stereo partly drawn) [ARV-110, N-[trans-4-(3-chloro-4-cyanophenoxy)cyclohexyl]-6-[4-[[4-[2-(2,6-dioxo-3-piperidinyl)-6-fluoro-2,3-dihydro-1,3-dioxo-1H-isoindol-5-yl]-1-piperazinyl]methyl]-1-piperidinyl]-3-pyridazinecarboxamide]
AR protein levels (AR protein): degrades AR protein in a dose-dependent manner | R1881-induced cell growth (CWR22PC cells): blunts | GR transcript levels (GR mRNA; CWR22PC cells (moderate GR pre-treatment), 100 nM degrader): minimal | upregulation of GR mRNA levels (GR mRNA; GR-negative LNCaP cells, 100 nM ARV-110): ~ 7 fold | expression of GR target genes including GILZ, PER1, KLF9, and SGK1 [1]: most of the GR target genes are upregulated in a time dependent manner | expression induction by R1881 of AR target FKBP5 [2]: completely inhibited | expression induction by R1881 of AR target KLK4 [2]: completely inhibited
